The source made the active and inactive calls. How the calls were made is not given here.
Experiments:
Assay in all cases: off-target binding and CYP inhibition panel, profiling panel, selectivity assay for GPR7 antagonist project, biochemical, Ricerca HitProfilingScreen, CYP450, set 2 (AID 540345)
Sodium Channel = conditions: Ricerca radioligand binding/CYP panel, Site 2, at 10 µM, stronger effect = higher value
Adenosine A1 = conditions: Ricerca radioligand binding/CYP panel, at 10 µM, stronger effect = higher value
Adrenergic alpha1B = conditions: Ricerca radioligand binding/CYP panel, at 10 µM, stronger effect = higher value
[1] = target: Cytochrome P450 3A4 (Homo sapiens) (UniProt P08684); conditions: Ricerca radioligand binding/CYP panel; CYP450 3A4; at 10 µM; stronger effect = higher value
Sequence of Cytochrome P450 3A4 (Homo sapiens) (P08684 whole entry, looked up): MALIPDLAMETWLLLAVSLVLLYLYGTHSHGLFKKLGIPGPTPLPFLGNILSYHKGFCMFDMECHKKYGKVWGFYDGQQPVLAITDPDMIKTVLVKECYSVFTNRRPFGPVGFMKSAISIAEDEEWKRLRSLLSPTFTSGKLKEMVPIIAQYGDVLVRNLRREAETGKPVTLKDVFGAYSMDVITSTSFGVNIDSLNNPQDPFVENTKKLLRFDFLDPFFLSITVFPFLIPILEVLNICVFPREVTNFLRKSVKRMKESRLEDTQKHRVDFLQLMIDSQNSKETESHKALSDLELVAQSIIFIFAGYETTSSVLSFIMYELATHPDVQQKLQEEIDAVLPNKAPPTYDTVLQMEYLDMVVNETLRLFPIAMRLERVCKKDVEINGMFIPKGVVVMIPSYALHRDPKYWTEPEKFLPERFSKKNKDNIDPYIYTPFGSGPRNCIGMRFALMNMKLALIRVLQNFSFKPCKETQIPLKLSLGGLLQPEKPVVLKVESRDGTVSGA

[2] = target: Muscarinic acetylcholine receptor M3 (Homo sapiens) (UniProt P20309); conditions: Ricerca radioligand binding/CYP panel, at 10 µM, stronger effect = higher value
Adenosine A2A = conditions: Ricerca radioligand binding/CYP panel, at 10 µM, stronger effect = higher value
Prostanoid EP4 = conditions: Ricerca radioligand binding/CYP panel, at 10 µM, stronger effect = higher value
GABAA = conditions: Ricerca radioligand binding/CYP panel, central, at 10 µM, stronger effect = higher value
Opiate mu (OP3, MOP) = conditions: Ricerca radioligand binding/CYP panel, at 10 µM, stronger effect = higher value
Glutamate NMDA = conditions: Ricerca radioligand binding/CYP panel, Phencyclidine site, at 10 µM, stronger effect = higher value
[3] = tested on: Alpha-2A adrenergic receptor (Homo sapiens) + Histamine H1 receptor (Homo sapiens) + Mu-type opioid receptor (Homo sapiens); conditions: Ricerca radioligand binding/CYP panel; at 10 µM; stronger effect = higher value
[4] = target: Alpha-2A adrenergic receptor (Homo sapiens) (UniProt P08913); conditions: Ricerca radioligand binding/CYP panel; Adrenergic alpha2A; at 10 µM; stronger effect = higher value
Sequence of Alpha-2A adrenergic receptor (Homo sapiens) (P08913 whole entry, looked up): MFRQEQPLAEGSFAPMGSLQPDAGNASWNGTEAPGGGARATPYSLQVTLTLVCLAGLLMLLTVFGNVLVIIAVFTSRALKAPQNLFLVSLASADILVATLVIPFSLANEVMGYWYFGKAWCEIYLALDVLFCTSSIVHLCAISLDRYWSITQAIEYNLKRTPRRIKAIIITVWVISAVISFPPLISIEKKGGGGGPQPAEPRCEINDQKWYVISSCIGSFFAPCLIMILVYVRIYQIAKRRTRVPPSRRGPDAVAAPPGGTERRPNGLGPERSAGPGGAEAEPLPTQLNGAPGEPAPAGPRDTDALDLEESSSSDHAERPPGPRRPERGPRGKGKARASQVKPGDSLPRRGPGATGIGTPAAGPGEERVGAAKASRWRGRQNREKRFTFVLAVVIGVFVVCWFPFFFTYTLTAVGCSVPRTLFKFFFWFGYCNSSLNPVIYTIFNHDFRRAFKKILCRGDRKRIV

Nicotinic Acetylcholine = conditions: Ricerca radioligand binding/CYP panel, at 10 µM, stronger effect = higher value
Histamine H1 = conditions: Ricerca radioligand binding/CYP panel, at 10 µM, stronger effect = higher value
[5] = target: Cytochrome P450 2C9 (Homo sapiens) (UniProt P11712); conditions: Ricerca radioligand binding/CYP panel; CYP450 2C9; at 10 µM; stronger effect = higher value
Sequence of Cytochrome P450 2C9 (Homo sapiens) (P11712 whole entry, looked up): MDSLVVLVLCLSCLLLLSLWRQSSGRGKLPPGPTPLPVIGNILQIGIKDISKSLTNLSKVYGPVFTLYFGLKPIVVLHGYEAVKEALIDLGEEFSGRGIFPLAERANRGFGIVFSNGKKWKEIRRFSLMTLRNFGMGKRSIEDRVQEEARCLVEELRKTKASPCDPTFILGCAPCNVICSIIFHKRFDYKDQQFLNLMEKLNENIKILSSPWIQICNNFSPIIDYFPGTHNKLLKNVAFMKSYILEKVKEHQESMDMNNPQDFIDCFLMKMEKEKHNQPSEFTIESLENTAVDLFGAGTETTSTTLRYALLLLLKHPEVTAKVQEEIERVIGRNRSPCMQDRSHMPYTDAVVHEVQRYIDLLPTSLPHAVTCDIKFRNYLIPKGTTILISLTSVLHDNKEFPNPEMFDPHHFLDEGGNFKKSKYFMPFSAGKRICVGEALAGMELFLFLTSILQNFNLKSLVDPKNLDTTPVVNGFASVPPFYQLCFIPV

[6] = target: Beta-2 adrenergic receptor (Homo sapiens) (UniProt P07550); conditions: Ricerca radioligand binding/CYP panel; Adrenergic beta2; at 10 µM; stronger effect = higher value
Sequence of Beta-2 adrenergic receptor (Homo sapiens) (P07550 whole entry, looked up): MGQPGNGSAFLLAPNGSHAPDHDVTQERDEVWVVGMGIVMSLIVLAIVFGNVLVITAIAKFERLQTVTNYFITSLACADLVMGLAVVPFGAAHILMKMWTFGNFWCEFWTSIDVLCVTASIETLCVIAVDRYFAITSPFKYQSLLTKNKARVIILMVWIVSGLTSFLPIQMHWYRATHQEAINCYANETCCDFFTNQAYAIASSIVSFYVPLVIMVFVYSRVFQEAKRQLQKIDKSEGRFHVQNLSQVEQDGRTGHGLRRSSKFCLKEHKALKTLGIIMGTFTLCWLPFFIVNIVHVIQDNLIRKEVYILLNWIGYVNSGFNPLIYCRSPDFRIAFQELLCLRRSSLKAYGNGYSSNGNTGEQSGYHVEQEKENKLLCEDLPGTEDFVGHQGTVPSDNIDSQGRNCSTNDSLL

Adrenergic alpha1A = conditions: Ricerca radioligand binding/CYP panel, at 10 µM, stronger effect = higher value
CYP450 2C19 = conditions: Ricerca radioligand binding/CYP panel, at 10 µM, stronger effect = higher value
[7] = target: Cytochrome P450 1A2 (Homo sapiens) (UniProt P05177); conditions: Ricerca radioligand binding/CYP panel; CYP450 1A2; at 10 µM; stronger effect = higher value
Sequence of Cytochrome P450 1A2 (Homo sapiens) (P05177 whole entry, looked up): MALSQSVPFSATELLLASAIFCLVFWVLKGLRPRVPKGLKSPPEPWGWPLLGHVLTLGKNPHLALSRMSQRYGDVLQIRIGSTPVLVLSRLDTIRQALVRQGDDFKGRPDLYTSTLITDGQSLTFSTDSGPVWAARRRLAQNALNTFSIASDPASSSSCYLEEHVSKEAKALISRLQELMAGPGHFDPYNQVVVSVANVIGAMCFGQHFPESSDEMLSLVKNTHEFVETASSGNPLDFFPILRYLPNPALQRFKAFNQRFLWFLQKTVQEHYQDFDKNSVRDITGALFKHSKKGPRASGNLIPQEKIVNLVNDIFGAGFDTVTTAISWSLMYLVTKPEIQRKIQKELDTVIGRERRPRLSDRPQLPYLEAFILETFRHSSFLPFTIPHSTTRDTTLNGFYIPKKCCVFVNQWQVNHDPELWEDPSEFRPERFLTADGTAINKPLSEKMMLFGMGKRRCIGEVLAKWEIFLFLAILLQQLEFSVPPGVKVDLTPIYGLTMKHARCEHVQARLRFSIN

[8] = tested on: Transporter Norepinephrine (NET); conditions: Ricerca radioligand binding/CYP panel, at 10 µM, stronger effect = higher value
Calcium Channel L-Type = conditions: Ricerca radioligand binding/CYP panel, Dihydropyridine site, at 10 µM, stronger effect = higher value
[9] = target: Muscarinic acetylcholine receptor M2 (Homo sapiens) (UniProt P08172); conditions: Ricerca radioligand binding/CYP panel, at 10 µM, stronger effect = higher value
Sequence of Muscarinic acetylcholine receptor M2 (Homo sapiens) (P08172 whole entry, looked up): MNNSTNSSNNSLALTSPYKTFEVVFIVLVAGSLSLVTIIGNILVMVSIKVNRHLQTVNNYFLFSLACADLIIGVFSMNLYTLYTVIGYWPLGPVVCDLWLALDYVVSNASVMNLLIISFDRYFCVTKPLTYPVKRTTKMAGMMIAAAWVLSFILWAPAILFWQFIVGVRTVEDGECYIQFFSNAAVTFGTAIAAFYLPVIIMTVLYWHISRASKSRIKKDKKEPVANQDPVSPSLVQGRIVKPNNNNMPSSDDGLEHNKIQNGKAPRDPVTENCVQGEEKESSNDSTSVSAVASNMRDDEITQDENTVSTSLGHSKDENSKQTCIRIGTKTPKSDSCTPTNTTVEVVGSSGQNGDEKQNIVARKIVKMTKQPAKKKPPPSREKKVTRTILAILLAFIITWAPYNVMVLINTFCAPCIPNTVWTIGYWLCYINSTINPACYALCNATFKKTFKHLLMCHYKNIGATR

[10] = target: Cytochrome P450 2D6 (Homo sapiens) (UniProt P10635); conditions: Ricerca radioligand binding/CYP panel; CYP450 2D6; at 10 µM; stronger effect = higher value
Sequence of Cytochrome P450 2D6 (Homo sapiens) (P10635 whole entry, looked up): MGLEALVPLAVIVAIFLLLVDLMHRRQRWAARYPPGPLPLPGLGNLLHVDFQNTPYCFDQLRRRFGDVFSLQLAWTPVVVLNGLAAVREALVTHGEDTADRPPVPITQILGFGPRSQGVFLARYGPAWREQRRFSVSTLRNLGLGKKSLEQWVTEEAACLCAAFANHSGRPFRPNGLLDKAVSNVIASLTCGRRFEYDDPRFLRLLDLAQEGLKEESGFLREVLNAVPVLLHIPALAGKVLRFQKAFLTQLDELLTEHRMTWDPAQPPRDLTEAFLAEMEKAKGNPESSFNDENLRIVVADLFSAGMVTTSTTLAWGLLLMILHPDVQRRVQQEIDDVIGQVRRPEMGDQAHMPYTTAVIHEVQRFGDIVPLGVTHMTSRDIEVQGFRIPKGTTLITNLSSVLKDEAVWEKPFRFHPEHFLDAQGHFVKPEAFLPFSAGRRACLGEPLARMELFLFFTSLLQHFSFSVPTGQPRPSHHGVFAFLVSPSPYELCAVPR

Adrenergic beta1 = conditions: Ricerca radioligand binding/CYP panel, at 10 µM, stronger effect = higher value
Cannabinoid CB1 = conditions: Ricerca radioligand binding/CYP panel, at 10 µM, stronger effect = higher value
[11] = target: 5-hydroxytryptamine receptor 2B (Homo sapiens) (UniProt P41595); conditions: Ricerca radioligand binding/CYP panel; Serotonin (5-Hydroxytryptamine) 5-HT2B; at 10 µM; stronger effect = higher value
Dopamine D2S = conditions: Ricerca radioligand binding/CYP panel, at 10 µM, stronger effect = higher value
[12] = target: Voltage-gated inwardly rectifying potassium channel KCNH2 (Homo sapiens) (UniProt Q12809); conditions: Ricerca radioligand binding/CYP panel; Potassium Channel hERG; at 10 µM; stronger effect = higher value
Sequence of Voltage-gated inwardly rectifying potassium channel KCNH2 (Homo sapiens) (Q12809 whole entry, looked up): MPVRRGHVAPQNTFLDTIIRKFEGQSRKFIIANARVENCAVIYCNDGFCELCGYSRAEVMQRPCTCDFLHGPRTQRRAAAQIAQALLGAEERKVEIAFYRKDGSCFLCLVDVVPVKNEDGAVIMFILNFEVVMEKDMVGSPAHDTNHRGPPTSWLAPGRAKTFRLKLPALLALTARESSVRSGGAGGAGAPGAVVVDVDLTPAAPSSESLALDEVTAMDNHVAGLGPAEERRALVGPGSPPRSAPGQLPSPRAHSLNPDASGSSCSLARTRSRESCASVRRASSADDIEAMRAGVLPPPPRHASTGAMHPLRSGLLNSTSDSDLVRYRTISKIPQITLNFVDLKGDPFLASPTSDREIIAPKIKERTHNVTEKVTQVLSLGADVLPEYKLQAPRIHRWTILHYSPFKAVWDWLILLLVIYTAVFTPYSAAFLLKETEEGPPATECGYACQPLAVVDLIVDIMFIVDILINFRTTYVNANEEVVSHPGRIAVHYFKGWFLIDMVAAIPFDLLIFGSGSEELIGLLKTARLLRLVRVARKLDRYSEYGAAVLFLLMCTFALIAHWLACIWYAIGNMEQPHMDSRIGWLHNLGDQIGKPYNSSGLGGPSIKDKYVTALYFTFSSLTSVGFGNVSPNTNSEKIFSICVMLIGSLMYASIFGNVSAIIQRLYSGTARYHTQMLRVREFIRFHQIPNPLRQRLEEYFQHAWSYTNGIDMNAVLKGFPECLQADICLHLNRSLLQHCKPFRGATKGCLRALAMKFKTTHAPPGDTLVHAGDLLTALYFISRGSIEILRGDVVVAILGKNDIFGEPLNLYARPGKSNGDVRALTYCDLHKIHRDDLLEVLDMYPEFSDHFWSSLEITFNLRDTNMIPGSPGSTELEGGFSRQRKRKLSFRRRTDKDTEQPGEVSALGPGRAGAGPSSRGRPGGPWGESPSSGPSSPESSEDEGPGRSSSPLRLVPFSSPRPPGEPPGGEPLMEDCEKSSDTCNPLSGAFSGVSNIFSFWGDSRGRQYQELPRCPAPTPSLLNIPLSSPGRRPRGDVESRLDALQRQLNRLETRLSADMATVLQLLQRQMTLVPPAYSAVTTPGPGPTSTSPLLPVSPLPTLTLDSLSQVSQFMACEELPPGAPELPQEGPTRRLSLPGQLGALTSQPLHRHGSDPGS

[13] = target: D(1A) dopamine receptor (Homo sapiens) (UniProt P21728); conditions: Ricerca radioligand binding/CYP panel; Dopamine D1; at 10 µM; stronger effect = higher value
Sequence of D(1A) dopamine receptor (Homo sapiens) (P21728 whole entry, looked up): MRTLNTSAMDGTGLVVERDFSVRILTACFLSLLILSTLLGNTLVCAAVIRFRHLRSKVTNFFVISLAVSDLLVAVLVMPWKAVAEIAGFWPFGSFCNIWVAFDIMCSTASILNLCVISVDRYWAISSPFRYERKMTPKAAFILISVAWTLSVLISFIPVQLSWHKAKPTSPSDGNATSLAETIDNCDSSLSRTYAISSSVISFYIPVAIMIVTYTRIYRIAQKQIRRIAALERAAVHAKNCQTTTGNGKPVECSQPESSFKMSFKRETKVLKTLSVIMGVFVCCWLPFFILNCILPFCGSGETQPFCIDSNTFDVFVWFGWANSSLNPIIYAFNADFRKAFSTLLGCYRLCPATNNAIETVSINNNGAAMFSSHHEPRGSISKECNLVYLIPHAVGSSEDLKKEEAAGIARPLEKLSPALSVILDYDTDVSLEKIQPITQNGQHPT

Sigma 1 = conditions: Ricerca radioligand binding/CYP panel, at 10 µM, stronger effect = higher value

COc1ccc(Oc2c(Cl)cnn(C3c4ccccc4-c4ccccc43)c2=O)cc1
inhibition (Sodium Channel): 36% (inactive)
inhibition (Adenosine A1): 7% (inactive)
inhibition (Adrenergic alpha1B): 8% (inactive)
inhibition [1]: 26% (inactive)
inhibition [2]: -1% (inactive)
inhibition (Adenosine A2A): 15% (inactive)
inhibition (Prostanoid EP4): 5% (inactive)
inhibition (GABAA; Flunitrazepam site): 0% (inactive)
inhibition (GABAA; Muscimol site): 7% (inactive)
inhibition (Opiate mu (OP3, MOP)): 1% (inactive)
inhibition (Glutamate NMDA): -18% (inactive)
inhibition [3]: 8% (inactive)
inhibition [4]: 5% (inactive)
inhibition (Nicotinic Acetylcholine): -16% (inactive)
inhibition (Histamine H1): 17% (inactive)
inhibition [5]: 13% (inactive)
inhibition [6]: 4% (inactive)
inhibition (Adrenergic alpha1A): -1% (inactive)
inhibition (CYP450 2C19): 51%
inhibition [7]: 67%
inhibition [8]: 42% (inactive)
inhibition (Calcium Channel L-Type): 33% (inactive)
inhibition [9]: -2% (inactive)
inhibition [10]: 2% (inactive)
inhibition (Adrenergic beta1): 7% (inactive)
inhibition (Cannabinoid CB1): 9% (inactive)
inhibition [11]: 63%
inhibition (Dopamine D2S): -1% (inactive)
inhibition [12]: 28% (inactive)
inhibition [13]: 14% (inactive)
inhibition (Sigma 1): 6% (inactive)

Reference: PubChem BioAssay AID540345 (The Scripps Research Institute Molecular Screening Center, 2011)
